The molecules below were run against KRas G12C (Homo sapiens, UniProt P01116, G12C) (assay: Inhibition of KRas G12C in NCI-H358 cells measured by phosphorylated ERK (Phospho-ERK)). Details: 3 hours, 4 parameter fit, read-out: IC50 (pERK(Thr202/Tyr204) signal normalized with GAPDH).
Format: cell-based
Protocol: Cells were plated in poly-D-Lysine coated 96-well plates at a concentration of 50,000 cells/well and allowed to attach for 8-12 hours. Diluted compounds were then added at a final concentration of 0.5% DMSO. After 3 hours, the medium was removed, 150 μL of 4% formaldehyde was added and the plates were incubated for 20 minutes. The plates were washed with PBS, and permeabilized using 150 μL of ice cold 100% methanol for 10 minutes. Non-specific antibody binding to the plates was blocked using 100 μL Licor Blocking Buffer (Li-Cor Biotechnology, Lincoln Nebr.) for 1 hour at room temperature. Positive control samples and samples lacking cells were parallel processed with test samples as standards.
The amount Phospho-ERK was determined using an antibody specific for the phosphorylated form of ERK and compared to the amount of GAPDH. […] The plates were incubated for 2 hours at room temperature. The plates were washed with PBS+0.05% Tween 20.
Secondary antibodies used to visualize primary antibodies were added as follows: Anti-rabbit-680 diluted 1:1000 and Anti-mouse-800 diluted 1:1000 in Licor Block+0.05% Tween 20 and incubated for 1 hour at room temperature. The plates were washed with PBS+0.05% Tween 20. A 100 μL aliquot of PBS was added to each well and the plates were read on a LICOR AERIUS plate reader.
The pERK(Thr202/Tyr204) signal was normalized with the GAPDH signal and percent of DMSO control values were calculated. IC50 values were generated using a 4 parameter fit of the dose response curve.

KRas G12C, sequence (P01116 1-188 isoform P01116-2 G12C): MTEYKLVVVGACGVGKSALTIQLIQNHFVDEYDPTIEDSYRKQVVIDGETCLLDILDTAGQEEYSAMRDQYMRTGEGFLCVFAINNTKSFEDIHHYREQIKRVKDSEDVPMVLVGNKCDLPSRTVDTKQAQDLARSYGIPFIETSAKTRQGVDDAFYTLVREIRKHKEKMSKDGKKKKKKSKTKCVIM

Compound	IC50 [nM]
C=C(F)C(=O)N1CCN(c2nc(OCC34CCCN3C(C)CC4)nc3c2CCN(c2cccc4ccc(F)c(Cl)c24)C3)C[C@@H]1CC#N (stereo partly drawn) [Example 186]	0.1 to 1000
C=C(F)C(=O)N1CCN(c2nc(OCC34CCCN3CCC4)nc3c2CCN(c2cccc4ccccc24)C3)C[C@@H]1CC#N [Example 146]	0.1 to 1000
C=C(F)C(=O)N1CCN(c2nc(OCC(C)N3C[C@@H](C)O[C@@H](C)C3)nc3c2CCN(c2cccc4ccc(F)c(Cl)c24)C3)C[C@@H]1CC#N (stereo partly drawn) [Example 164]	1000 to 10000
C=C(F)C(=O)N1CCN(c2nc(OCC3COCCC34CN(C)C4)nc3c2CCN(c2cccc4ccc(F)c(Cl)c24)C3)C[C@@H]1CC#N (stereo partly drawn) [Example 161]	0.1 to 1000
C=C(F)C(=O)N1CCN(c2nc(OC[C@H]3CN(C)CCO3)nc3c2CCN(c2cccc4ccc(F)c(Cl)c24)C3)C[C@@H]1CC#N [Example 195]	0.1 to 1000
COC/C=C/C(=O)N1CCN(c2nc(OC[C@@H]3CC(F)(F)CN3C)nc3c2CCN(c2cccc4cccc(C)c24)C3)C[C@@H]1CC#N [Example 60, 2-((S)-4-(2-(((S)-4,4-difluoro-1-methylpyrrolidin-2-yl)methoxy)-7-(8-methylnaphthalen-1-yl)-5,6,7,8-tetrahydropyrido[3,4-d]pyrimidin-4-yl)-1-((E)-4-methoxybut-2-enoyl)piperazin-2-yl)acetonitrile]	0.1 to 1000
C=C(F)C(=O)N1CCN(c2nc(OCC34CCCN3CCC4)nc3c2CCN(c2cccc(Cl)c2C(F)(F)F)C3)C[C@@H]1CC#N [Example 141]	0.1 to 1000
C=C(F)C(=O)N1CCN(c2nc(OC[C@@H]3C[C@@H](OC)CN3C)nc3c2CCN(c2cccc4ccc(F)c(Cl)c24)C3)C[C@@H]1CC#N [Example 170]	0.1 to 1000
C=C(F)C(=O)N1CCN(c2nc(OC[C@@H]3CC4CCN3C4)nc3c2CCN(c2cccc4ccc(F)c(Cl)c24)C3)C[C@@H]1CC#N (stereo partly drawn) [Example 180]	0.1 to 1000
C=C(F)C(=O)N1CCN(c2nc(OCC3(C)CCCN3C)nc3c2CCN(c2cccc4ccc(F)c(Cl)c24)C3)C[C@@H]1CC#N (stereo partly drawn) [Example 139, 2-((2S)-4-(7-(8-chloro-7-fluoronaphthalen-1-yl)-2-((1,2-dimethylpyrrolidin-2-yl)methoxy)-5,6,7,8-tetrahydropyrido[3,4-d]pyrimidin-4-yl)-1-(2-fluoroacryloyl)piperazin-2-yl)acetonitrile]	0.1 to 1000
C=C(F)C(=O)N1CCN(c2nc(OC[C@@H]3CCCN3C)nc3c2CCN(c2cccc4ccc(F)c(C)c24)C3)C[C@@H]1CC#N [Example 131, 2-((S)-4-(7-(7-fluoro-8-methylnaphthalen-1-yl)-2-(((S)-1-methylpyrrolidin-2-yl)methoxy)-5,6,7,8-tetrahydropyrido[3,4-d]pyrimidin-4-yl)-1-(2-fluoroacryloyl)piperazin-2-yl)acetonitrile]	0.1 to 1000
C=C(F)C(=O)N1CCN(c2nc(OCCNCC(F)F)nc3c2CCN(c2cccc4ccc(F)c(Cl)c24)C3)C[C@@H]1CC#N [Example 211, (S)-2-(4-(7-(8-chloro-7-fluoronaphthalen-1-yl)-2-(2-((2,2-difluoroethyl)amino)ethoxy)-5,6,7,8-tetrahydropyrido[3,4-d]pyrimidin-4-yl)-1-(2-fluoroacryloyl)piperazin-2-yl)acetonitrile]	0.1 to 1000
C=C(F)C(=O)N1CCN(c2nc(OC[C@@H]3CCCN3C)nc3c2CCN(c2cccc4ccc(F)c(F)c24)C3)C[C@@H]1CC#N [Example 136]	0.1 to 1000
C=C(F)C(=O)N1CCN(c2nc(OC[C@@H]3C[C@@H](F)CN3)nc3c2CCN(c2cccc4ccc(F)c(Cl)c24)C3)C[C@@H]1CC#N [Example 209, 2-((S)-4-(7-(8-chloro-7-fluoronaphthalen-1-yl)-2-(((2S,4R)-4-fluoropyrrolidin-2-yl)methoxy)-5,6,7,8-tetrahydropyrido[3,4-d]pyrimidin-4-yl)-1-(2-fluoroacryloyl)piperazin-2-yl)acetonitrile]	0.1 to 1000
C=C(F)C(=O)N1CCN(c2nc(OCCN(C)CC(F)(F)F)nc3c2CCN(c2cccc4ccc(F)c(Cl)c24)C3)C[C@@H]1CC#N [Example 148, (S)-2-(4-(7-(8-chloro-7-fluoronaphthalen-1-yl)-2-(2-(methyl(2,2,2-trifluoroethyl)amino)ethoxy)-5,6,7,8-tetrahydropyrido[3,4-d]pyrimidin-4-yl)-1-(2-fluoroacryloyl)piperazin-2-yl)acetonitrile]	1000 to 10000
C=C(F)C(=O)N1CCN(c2nc(OC[C@@H]3CCCN3C)nc3c2CCN(c2cccc4c2CCC4)C3)C[C@@H]1CC#N [Example 135]	0.1 to 1000
C=C(F)C(=O)N1CCN(c2nc(OCC3CN(C)CCC34CN(C)C4)nc3c2CCN(c2cccc4ccc(F)c(Cl)c24)C3)C[C@@H]1CC#N (stereo partly drawn) [Example 162]	0.1 to 1000
C=C(F)C(=O)N1CCN(c2nc(O[C@H]3CCC[C@@H]3N(C)C)nc3c2CCN(c2cccc4ccc(F)c(Cl)c24)C3)C[C@@H]1CC#N [Example 153]	1000 to 10000
C=C(F)C(=O)N1CCN(c2nc(OC[C@@H]3CC(F)(F)CN3C)nc3c2CCN(c2cccc4ccc(F)c(Cl)c24)C3)C[C@@H]1CC#N [Example 169]	0.1 to 1000
C=C(F)C(=O)N1CCN(c2nc(OC[C@@H]3CCCN3C)nc3c2CCN(c2cccc4ccc(F)c(Cl)c24)C3)C[C@@H]1CC#N [Example 133]	0.1 to 1000
C=C(F)C(=O)N1CCN(c2nc(OCC3CCCO3)nc3c2CCN(c2cccc4ccc(F)c(Cl)c24)C3)C[C@@H]1CC#N (stereo partly drawn) [Example 176]	0.1 to 1000
C=C(F)C(=O)N1CCN(c2nc(OCC3CCN3C(C)C)nc3c2CCN(c2cccc4ccc(F)c(Cl)c24)C3)C[C@@H]1CC#N (stereo partly drawn) [Example 178]	0.1 to 1000
C=C(F)C(=O)N1CCN(c2nc(OCC3CN(C)C3)nc3c2CCN(c2cccc4ccc(F)c(Cl)c24)C3)C[C@@H]1CC#N [Example 173]	0.1 to 1000
C=C(F)C(=O)N1CCN(c2nc(OCC34CCCCN3CCC4)nc3c2CCN(c2cccc4ccc(F)c(Cl)c24)C3)C[C@@H]1CC#N (stereo partly drawn) [Example 151]	0.1 to 1000
C=C(F)C(=O)N1CCN(c2nc(OCCn3ccnc3)nc3c2CCN(c2cccc4ccc(F)c(Cl)c24)C3)C[C@@H]1CC#N [Example 163]	1000 to 10000
C=C(F)C(=O)N1CCN(c2nc(OCC34CCC(CC3)N4C)nc3c2CCN(c2cccc4ccc(F)c(Cl)c24)C3)C[C@@H]1CC#N [Example 171]	0.1 to 1000
C=C(F)C(=O)N1CCN(c2nc(OC3CC4(C3)CN(C)C4)nc3c2CCN(c2cccc4ccc(F)c(Cl)c24)C3)C[C@@H]1CC#N [Example 149]	1000 to 10000
C=C(F)C(=O)N1CCN(c2nc(OCC34CCCN3CCC4)nc3c2CCN(c2cccc(C)c2C)C3)C[C@@H]1CC#N [Example 142]	0.1 to 1000
C=C(F)C(=O)N1CCN(c2nc(OCC34CCCN3C(=O)CC4)nc3c2CCN(c2cccc4ccc(F)c(Cl)c24)C3)C[C@@H]1CC#N (stereo partly drawn) [Example 145]	1000 to 10000
C=C(F)C(=O)N1CCN(c2nc(OC3CN(C)C3)nc3c2CCN(c2cccc4ccc(F)c(Cl)c24)C3)C[C@@H]1CC#N [Example 168]	1000 to 10000

Source: US20200308170A1, “KRAS G12C INHIBITORS” (Mirati Therapeutics, Inc., priority 2017, published 2020)
